Results published in ChEMBL document CHEMBL3885881, “DrugMatrix”.

Organism: Rattus norvegicus
Experiment: DrugMatrix - Regimen: Daily Repeat
Assay type: toxicity, organism-based, Sprague-Dawley
Parameters: regimen Daily Repeat, gender Male, age 6-8 weeks
Details: in vivo, po, route oral GAVAGE, […]; for URIC ACID / ALANINE AMINOTRANSFERASE / ALBUMIN / ALKALINE PHOSPHATASE / ASPARTATE AMINOTRANSFERASE / BLOOD UREA NITROGEN / CARBON DIOXIDE / CHLORIDE / CREATINE PHOSPHOKINASE / CREATININE / GLUCOSE / LACTATE DEHYDROGENASE / LIPASE / PHOSPHORUS / POTASSIUM / SODIUM / TOTAL BILIRUBIN / TOTAL PROTEIN / CHOLESTEROL: tissue Plasma; for ABSOLUTE BASOPHIL / ABSOLUTE EOSINOPHIL / ABSOLUTE LYMPHOCYTE / ABSOLUTE MONOCYTE / ABSOLUTE SEGMENTED NEUTROPHIL / BASOPHIL / EOSINOPHIL / ERYTHROCYTE COUNT / HEMATOCRIT / HEMOGLOBIN / LEUKOCYTE COUNT / LYMPHOCYTE / MEAN CORPUSCULAR HEMOGLOBIN / MEAN CORPUSCULAR HEMOGLOBIN CONCENTRATION / MONOCYTE / NEUTROPHIL / NUCLEATED RED BLOOD CELLS / PLATELET COUNT: tissue Blood
[1] = 250 mg/kg, 120 h, dose level Low, time 5 day
[2] = 2500 mg/kg, 72 h, dose level High, time 3 day
[3] = 2500 mg/kg, 120 h, dose level High, time 5 day

Cc1noc(NS(=O)(=O)c2ccc(N)cc2)c1C [SULFISOXAZOLE]
URIC ACID (250 mg/kg, 72 h, dose level Low, time 3 day): 1.8 mg/dL
ABSOLUTE BASOPHIL [1]: 0 CELLS/uL
ABSOLUTE EOSINOPHIL [1]: 0 CELLS/uL
ABSOLUTE LYMPHOCYTE [1]: 9180.67 CELLS/uL
ABSOLUTE MONOCYTE [1]: 0 CELLS/uL
ABSOLUTE SEGMENTED NEUTROPHIL [1]: 986 CELLS/uL
BASOPHIL [1]: 0%
EOSINOPHIL [1]: 0%
ERYTHROCYTE COUNT [1]: 5.62 x10E6/uL
HEMATOCRIT [1]: 34.93%
HEMOGLOBIN [1]: 13.27 G/DL
LEUKOCYTE COUNT [1]: 10.17 x10E3/uL
LYMPHOCYTE [1]: 90.67%
MEAN CORPUSCULAR HEMOGLOBIN [1]: 23.63 pg
MEAN CORPUSCULAR HEMOGLOBIN CONCENTRATION [1]: 38 G/DL
MONOCYTE [1]: 0%
NEUTROPHIL [1]: 9.33%
NUCLEATED RED BLOOD CELLS [1]: 0 /100WBC
PLATELET COUNT [1]: 1021 x10E3/uL
ALANINE AMINOTRANSFERASE [1]: 64.33 u/L
ALBUMIN [1]: 4 G/DL
ALKALINE PHOSPHATASE [1]: 394 u/L
ASPARTATE AMINOTRANSFERASE [1]: 103.67 u/L
BLOOD UREA NITROGEN [1]: 15 mg/dL
CARBON DIOXIDE [1]: 30.67 mmol/L
CHLORIDE [1]: 101.67 MEQ/L
CREATINE PHOSPHOKINASE [1]: 404 u/L
CREATININE [1]: 0.18 mg/dL
GLUCOSE [1]: 149.33 mg/dL
LACTATE DEHYDROGENASE [1]: 127.33 u/L
LIPASE [1]: 11 u/L
PHOSPHORUS [1]: 10.7 mg/dL
POTASSIUM [1]: 5.9 MEQ/L
SODIUM [1]: 143.87 MEQ/L
TOTAL BILIRUBIN [1]: 0.17 mg/dL
TOTAL PROTEIN [1]: 5.9 G/DL
URIC ACID [1]: 1 mg/dL
ABSOLUTE BASOPHIL [2]: 0 CELLS/uL
ABSOLUTE EOSINOPHIL [2]: 133 CELLS/uL
ABSOLUTE LYMPHOCYTE [2]: 8008.67 CELLS/uL
ABSOLUTE MONOCYTE [2]: 152 CELLS/uL
ABSOLUTE SEGMENTED NEUTROPHIL [2]: 3173 CELLS/uL
BASOPHIL [2]: 0%
EOSINOPHIL [2]: 1%
ERYTHROCYTE COUNT [2]: 4.62 x10E6/uL
HEMATOCRIT [2]: 28.6%
HEMOGLOBIN [2]: 11.27 G/DL
LEUKOCYTE COUNT [2]: 11.47 x10E3/uL
LYMPHOCYTE [2]: 67%
MEAN CORPUSCULAR HEMOGLOBIN [2]: 24.33 pg
MEAN CORPUSCULAR HEMOGLOBIN CONCENTRATION [2]: 39.47 G/DL
MONOCYTE [2]: 1%
NEUTROPHIL [2]: 31%
NUCLEATED RED BLOOD CELLS [2]: 0 /100WBC
PLATELET COUNT [2]: 1118.33 x10E3/uL
ALANINE AMINOTRANSFERASE [2]: 65.33 u/L
ALBUMIN [2]: 4 G/DL
ALKALINE PHOSPHATASE [2]: 312 u/L
ASPARTATE AMINOTRANSFERASE [2]: 109.67 u/L
BLOOD UREA NITROGEN [2]: 13.67 mg/dL
CARBON DIOXIDE [2]: 24.67 mmol/L
CHLORIDE [2]: 98.33 MEQ/L
CHOLESTEROL [2]: 78.33 mg/dL
CREATINE PHOSPHOKINASE [2]: 1633.33 u/L
CREATININE [2]: 0.24 mg/dL
GLUCOSE [2]: 172.33 mg/dL
LACTATE DEHYDROGENASE [2]: 198.67 u/L
LIPASE [2]: 10.67 u/L
PHOSPHORUS [2]: 11.6 mg/dL
POTASSIUM [2]: 4.69 MEQ/L
SODIUM [2]: 140.23 MEQ/L
TOTAL BILIRUBIN [2]: 0.0667 mg/dL
TOTAL PROTEIN [2]: 6.13 G/DL
URIC ACID [2]: 1.5 mg/dL
ABSOLUTE BASOPHIL [3]: 0 CELLS/uL
ABSOLUTE EOSINOPHIL [3]: 0 CELLS/uL
ABSOLUTE LYMPHOCYTE [3]: 10533.67 CELLS/uL
ABSOLUTE MONOCYTE [3]: 131 CELLS/uL
ABSOLUTE SEGMENTED NEUTROPHIL [3]: 502 CELLS/uL
BASOPHIL [3]: 0%
EOSINOPHIL [3]: 0%
ERYTHROCYTE COUNT [3]: 5.59 x10E6/uL
HEMATOCRIT [3]: 35.7%
HEMOGLOBIN [3]: 13.8 G/DL
LEUKOCYTE COUNT [3]: 11.17 x10E3/uL
LYMPHOCYTE [3]: 94.33%
MEAN CORPUSCULAR HEMOGLOBIN [3]: 24.7 pg
MEAN CORPUSCULAR HEMOGLOBIN CONCENTRATION [3]: 38.63 G/DL
MONOCYTE [3]: 1%
NEUTROPHIL [3]: 4.67%
NUCLEATED RED BLOOD CELLS [3]: 0 /100WBC
PLATELET COUNT [3]: 1151.33 x10E3/uL
ALANINE AMINOTRANSFERASE [3]: 87.67 u/L
ALBUMIN [3]: 4.17 G/DL
ALKALINE PHOSPHATASE [3]: 442.67 u/L
ASPARTATE AMINOTRANSFERASE [3]: 84.33 u/L
BLOOD UREA NITROGEN [3]: 19.33 mg/dL
CARBON DIOXIDE [3]: 31 mmol/L
CHLORIDE [3]: 101.67 MEQ/L
CHOLESTEROL [3]: 73.33 mg/dL
CREATINE PHOSPHOKINASE [3]: 296.67 u/L
CREATININE [3]: 0.23 mg/dL
GLUCOSE [3]: 139 mg/dL
LACTATE DEHYDROGENASE [3]: 98 u/L
LIPASE [3]: 11 u/L
PHOSPHORUS [3]: 9.13 mg/dL
POTASSIUM [3]: 5.93 MEQ/L
SODIUM [3]: 145.57 MEQ/L
TOTAL BILIRUBIN [3]: 0.1 mg/dL
TOTAL PROTEIN [3]: 6.3 G/DL
URIC ACID [3]: 0.97 mg/dL
